Test results taken from ChEMBL document CHEMBL3217606, “New positive allosteric modulators of the metabotropic glutamate receptor 2 (mGluR2). Identification and synthesis of N-propyl-5-substituted isoquinolones” (Medchemcomm, 2011).

How the values were obtained:
[1] = biological target: T1, Metabotropic glutamate receptor 2 (Homo sapiens, UniProt Q14416); assay: Positive allosteric modulation of human mGluR2 expressed in CHO cells assessed as incorporation of [35S]GTPgammaS after 30 mins by scintillation counting analysis; type: functional, cell-based
Target sequence in this assay (Q14416 whole entry): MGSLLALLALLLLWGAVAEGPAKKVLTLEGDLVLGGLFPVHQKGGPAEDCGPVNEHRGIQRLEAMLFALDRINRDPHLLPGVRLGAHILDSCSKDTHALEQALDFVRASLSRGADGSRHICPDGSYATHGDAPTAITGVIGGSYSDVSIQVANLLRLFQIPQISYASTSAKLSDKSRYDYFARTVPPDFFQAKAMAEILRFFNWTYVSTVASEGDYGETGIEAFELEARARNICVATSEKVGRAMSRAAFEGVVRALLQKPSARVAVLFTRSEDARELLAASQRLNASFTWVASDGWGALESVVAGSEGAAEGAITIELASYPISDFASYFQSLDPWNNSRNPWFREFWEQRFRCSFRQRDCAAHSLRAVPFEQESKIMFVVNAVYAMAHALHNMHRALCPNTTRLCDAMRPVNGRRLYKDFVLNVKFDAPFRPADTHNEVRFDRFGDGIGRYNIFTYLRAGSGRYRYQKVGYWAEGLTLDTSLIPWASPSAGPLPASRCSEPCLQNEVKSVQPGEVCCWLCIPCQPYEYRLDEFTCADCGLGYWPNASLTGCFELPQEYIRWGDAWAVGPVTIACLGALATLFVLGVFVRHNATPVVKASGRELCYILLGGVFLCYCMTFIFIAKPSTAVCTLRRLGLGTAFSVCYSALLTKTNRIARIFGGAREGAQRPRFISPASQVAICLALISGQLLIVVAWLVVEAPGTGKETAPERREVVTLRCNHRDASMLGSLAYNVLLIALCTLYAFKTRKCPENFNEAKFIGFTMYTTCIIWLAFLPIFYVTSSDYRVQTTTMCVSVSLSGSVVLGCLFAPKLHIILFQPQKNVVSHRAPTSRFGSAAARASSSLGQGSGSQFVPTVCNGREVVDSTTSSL

[2] = biological target: T1, Metabotropic glutamate receptor 2; assay: Positive allosteric modulation of human mGluR2 expressed in CHO cells assessed as incorporation of [35S]GTPgammaS at 0.3 nM to 50 uM after 30 mins by scintillation counting analysis relative to control; type: functional, cell-based
Target sequence in this assay (Q14416 19-872 limits assumed): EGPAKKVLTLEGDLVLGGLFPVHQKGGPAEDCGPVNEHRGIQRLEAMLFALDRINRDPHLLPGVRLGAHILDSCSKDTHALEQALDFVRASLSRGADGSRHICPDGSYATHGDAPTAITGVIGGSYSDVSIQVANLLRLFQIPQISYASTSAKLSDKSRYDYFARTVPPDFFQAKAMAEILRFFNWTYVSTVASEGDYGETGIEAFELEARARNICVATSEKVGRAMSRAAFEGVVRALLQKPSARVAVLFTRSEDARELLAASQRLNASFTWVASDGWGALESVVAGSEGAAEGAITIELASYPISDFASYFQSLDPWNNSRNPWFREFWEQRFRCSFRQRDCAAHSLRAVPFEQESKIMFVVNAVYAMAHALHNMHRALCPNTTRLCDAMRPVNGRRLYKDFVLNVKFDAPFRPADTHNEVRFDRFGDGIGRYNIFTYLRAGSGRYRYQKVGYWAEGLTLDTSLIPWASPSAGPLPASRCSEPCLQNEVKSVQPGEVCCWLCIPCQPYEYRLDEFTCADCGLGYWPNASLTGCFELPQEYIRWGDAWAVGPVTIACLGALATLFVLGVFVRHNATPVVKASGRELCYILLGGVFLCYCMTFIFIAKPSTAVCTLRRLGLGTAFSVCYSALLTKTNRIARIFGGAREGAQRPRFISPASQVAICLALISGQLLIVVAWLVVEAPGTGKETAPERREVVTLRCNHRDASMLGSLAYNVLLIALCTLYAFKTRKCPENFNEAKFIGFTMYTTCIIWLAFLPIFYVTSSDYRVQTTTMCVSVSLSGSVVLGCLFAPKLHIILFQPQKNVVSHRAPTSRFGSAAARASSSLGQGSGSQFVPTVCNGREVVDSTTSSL

[3] = Drug metabolism in human liver microsomes at 5 uM after 15 mins; type: ADME; settings: read-out: Drug metabolism
[4] = biological target: T1, Metabotropic glutamate receptor 2; assay: Potentiation of human mGluR2 expressed in CHO cells assessed as fold shift in glutamate concentration response curve at 3 uM relative to control; type: cell-based
Target sequence in this assay (Q14416 19-872 limits assumed): as above

[5] = biological target: T1, Metabotropic glutamate receptor 2; assay: Positive allosteric modulation of mGluR2 (unknown origin) by FLIPR assay
Target sequence in this assay (Q14416 whole entry): as the sequence (Q14416 whole entry) above

EC50 [1] [nM] | Emax [2] [%] | metabolised at 0.25 h, 5 µM [3] [%] | fold change (FC) [4] | EC50 [5] [nM] | SMILES
251 | 68 | – | – | – | CCCn1ccc2c(NCCc3ccccc3)ccc(Cl)c2c1=O
200 | 163 | 26 | 6.6 | – | CCCn1ccc2c(NCc3ccccc3Cl)cccc2c1=O
251 | 110 | – | – | – | CCCn1ccc2c(NCCc3cccc(OC)c3)cccc2c1=O
251 | 92 | 97 | – | – | CCCn1ccc2c(NCCc3ccc(OC)cc3)cccc2c1=O
501 | 81 | – | – | – | CCCn1ccc2c(NCc3ccc(OC)cc3)cccc2c1=O
251 | 123 | – | – | – | CCCn1ccc2c(OCCc3ccc(OC)cc3)cccc2c1=O
1260 | 65 | – | – | – | CCCn1ccc2c(NCc3cccc(Oc4ccccc4)c3)cccc2c1=O
200 | 134 | – | – | – | CCCn1ccc2c(NCCc3ccc(C)cc3)cccc2c1=O
158 | 112 | 57 | – | – | CCCn1ccc2c(NCCCc3ccccc3)cccc2c1=O
200 | 162 | 34 | – | – | CCCn1ccc2c(NCc3cccc(OC(F)(F)F)c3)cccc2c1=O
2000 | 80 | 38 | – | – | CCCn1ccc2c(NCc3ccccc3)cccc2c1=O
501 | 123 | 52 | – | 158 | CCCn1ccc2c(NCCc3ccccc3)cccc2c1=O
398 | 93 | – | – | – | CCCn1ccc2c(N(C)CCc3ccc(OC)cc3)cccc2c1=O
126 | 137 | 91 | – | – | CCCn1ccc2c(NCCc3ccccc3OC)cccc2c1=O
316 | 129 | – | – | – | CCCn1ccc2c(NCc3cccc(OC)c3)cccc2c1=O
